Assay results: patent publication US20150218212A1, “FLUORINATED EPOXYKETONE-BASED TETRAPEPTIDE COMPOUNDS AND USES THEREOF AS PROTEASOME INHIBITORS” (FLUORINOV PHARMA INC., priority 2012, published 2015)
Like-named read-outs stand apart in the source and are kept apart here.

Assays:
[1] = target: T1, proteasome Chymotrypsin-like (CT-L) activity (Mus musculus, UniProt O09061+O55234); test: Pharmacodynamic proteasome activity in murine red blood cells, CT-L; format: in vivo, NOD/SCID mice; details: iv, mice, 2 mg/kg i.v.
T1 construct: RBCs were lysed with assay lysis buffer and incubated on ice for 30 minutes; from tissue; host or cells: red blood cells of NOD/SCID mice
Method: Cells were harvested by centrifugation at 1,200 rpm at room temperature. Cell pellets were washed with PBS (phosphate buffered saline) and lysed with assay lysis buffer (50 mM HEPES (N-2-hydroxyethylpiperazine-N′-2-ethanesulfonic acid), pH 7.5; 150 mM NaCl; 1% Triton X-100; 2 mM ATP). Cell lysates were incubated on ice for 30 minutes, mixed by vortex every 5 minutes, and then centrifuged at 12,000 g for 10 minutes. The supernatant was transferred to a 96-well plate. For each assay, 10 μg of total protein were incubated for 1 hour at 37° C. with increasing concentrations (1 nM to 10 μM) of test compound diluted in assay buffer (50 mM tris-HCl (tris(hydroxymethyl)aminomethane-HCl), pH 7.5; 150 mM NaCl). DMSO alone was used as a control in every assay plate. After incubation, a specific fluorogenic proteasome substrate was added to each assay reaction at a final concentration of 40 μM in a total volume of 100 μL. N-Succinyl-Leu-Leu-Val-Tyr-7-amino-4-methylcoumarin (Suc-Leu-Leu-Val-Tyr-AMC) was used for measuring chymotrypsin-like (CT-L) activity, t-butoxycarbonyl-Leu-Arg-Arg-7-amino-4-methylcoumarin (Boc-Leu-Arg-Arg-AMC) for trypsin-like (T-L) activity, and benzyloxycarbonyl-L-leucyl-L-leucyl-L-glutamyl-7-amino-4-methylcoumarin (Z-Leu-Leu-Glu-AMC) for caspase-like (C-L) activity. The excitation wavelength was set at 360 nm and the fluorescence emission wavelength of AMC was detected at 460 nm. The fluorescence of free AMC released during the enzymatic reaction was measured with a SpectraMax M5 fluorescent spectrophotometric plate reader (Molecular Devices, Sunnyvale, Calif.). AMC release rate was measured at 37° C. in a kinetic mode, recording every 5 minutes for 30 minutes. Experiments were performed in triplicate and repeated at least twice.
All mouse experiments were performed in accordance with approval from the Ontario Cancer Institute institutional animal review board. Five- to six-week-old male non-obese diabetic/severe combined immunodeficient (NOD/SCID) mice were grouped randomly (n=3 mice per group). Mice were administered vehicle (5% DMSO, 20% Cremophor) or compounds of Formula I at different doses either intravenously or by oral gavage, and venous blood samples (20-50 μL) were collected from each mouse over 24 hours. Blood samples were mixed with heparin (APP Pharmaceuticals; Schaumburg, Ill.) in 0.5 mL tubes in accordance with the manufacturer's instructions. After centrifugal separation at 3,000 g for 10 minutes, red blood cells (RBCs) in the bottom layer were transferred into a new tube and stored at −70° C. until use. RBCs were lysed with assay lysis buffer and incubated on ice for 30 minutes, mixing by vortex every 5 minutes, and then centrifuged at 12,000 g for 10 minutes. The supernatant was transferred to a 96-well plate and proteasome activity was measured as described above for tumor cell lysates.
Proteasome subunit activity (Chymotrypsin-like, Trypsin-like, Caspase-like, CT-L, T-L, C-L, respectively) were monitored over the course of 24 hrs following […] administration of representative compounds of Formula I. NOD/SCID mice were treated with compounds of Formula I (2 mg/kg by iv administration) or vehicle control and carfilzomib for up to 24 hours, as described above. Table 9 summarizes the data on pharmacodynamic activity of representative compounds of Formula I following a dose of 2 mg/kg intravenous (i.v) administration to mice. Data are presented as mean residual activity (SEM) relative to vehicle treated controls.

NCI-H322M = test: NCI screening panel, NCI-H322M (Non-Small Cell Lung Cancer); format: cell-based, human
Method: Representative compounds of Formula I were screened using the National Cancer Institute (NCI) screening panel, which consists of a panel of human tumor cell lines, representing leukemia, melanoma, and cancers of the lung, colon, ovary, breast, prostate and renal system.
After 24 h, two plates of each cell line are fixed in situ with TCA, to represent a measurement of the cell population for each cell line at the time of drug addition (Tz). Experimental drugs are solubilised in dimethyl sulfoxide at 400-fold the desired final maximum test concentration and stored frozen prior to use. At the time of drug addition, an aliquot of frozen concentrate is thawed and diluted to twice the desired final maximum test concentration with complete medium containing 50 μg/mL gentamicin. Additional four, 10-fold or ½ log serial dilutions are made to provide a total of five drug concentrations plus control. Aliquots of 100 μl of these different drug dilutions are added to the appropriate microtiter wells already containing 100 μl of medium, resulting in the required final drug concentrations.
Following drug addition, the plates are incubated for an additional 48 h at 37° C., 5% CO2, 95% air, and 100% relative humidity. For adherent cells, the assay is terminated by the addition of cold TCA (trichloroacetic acid). Cells are fixed in situ by the gentle addition of 50 μl of cold 50% (w/v) TCA (final concentration, 10% TCA) and incubated for 60 minutes at 4° C. The supernatant is discarded, and the plates are washed five times with tap water and air dried. Sulforhodamine B (SRB) solution (100 μl) at 0.4% (w/v) in 1% acetic acid is added to each well, and plates are incubated for 10 minutes at room temperature. After staining, unbound dye is removed by washing five times with 1% acetic acid and the plates are air dried. Bound stain is subsequently solubilised with 10 mM trizma base, and the absorbance is read on an automated plate reader at a wavelength of 515 nm. For suspension cells, the methodology is the same except that the assay is terminated by fixing settled cells at the bottom of the wells by gently adding 50 μl of 80% TCA (final concentration, 16% TCA). Using the seven absorbance measurements [time zero, (Tz), control growth, (C), and test growth in the presence of drug at the five concentration levels (Ti)], the percentage growth is calculated at each of the drug concentrations levels. Percentage growth inhibition is calculated as: [(Ti−Tz)/(C−Tz)]×100 for concentrations for which Ti>/=Tz and [(Ti−Tz)/Tz]×100 for concentrations for which Ti<Tz.
Three dose response parameters are calculated for each experimental agent. Growth inhibition of 50% (GI50) is calculated from [(Ti−Tz)/(C−Tz)]×100=50, which is the drug concentration resulting in a 50% reduction in the net protein increase (as measured by SRB staining) in control cells during the drug incubation. The drug concentration resulting in total growth inhibition (TGI) is calculated from Ti=Tz. The LC50 (concentration of drug resulting in a 50% reduction in the measured protein at the end of the drug treatment as compared to that at the beginning) indicating a net loss of cells following treatment is calculated from [(Ti−Tz)/Tz]×100=−50. Values are calculated for each of these three parameters if the level of activity is reached. However, if the effect is not reached or is exceeded, the value for that parameter is expressed as greater or less than the maximum or minimum concentration tested.

[2] = 30 min, read-out: Chymotrypsin-like (CT-L) mean residual activity relative to vehicle treated controls
[3] = 24 hrs, read-out: Chymotrypsin-like (CT-L) mean residual activity relative to vehicle treated controls
[4] = time 0, read-out: Chymotrypsin-like (CT-L) mean residual activity relative to vehicle treated controls

Compound | remaining activity at 2 mg/kg [1, 2] [%] | remaining activity at 2 mg/kg [1, 3] [%] | remaining activity at 2 mg/kg [1, 4] [%] | Log10GI50 (NCI-H322M) | Log10LC50 (NCI-H322M) | Log10TGI50 (NCI-H322M)
CC(C)C[C@H](NC(=O)[C@H](Cc1ccccc1)NC(=O)[C@H](COC(F)F)NC(=O)[C@H](COC(F)F)NC(=O)CN1CCOCC1)C(=O)[C@@]1(C)CO1 [Example 11, (2S)-2-[[(2S)-3-(difluoromethoxy)-2-[[(2S)-3-(difluoromethoxy)-2-[(2-morpholinoacetyl)-amino]propanoyl]amino]propanoyl]amino]-N-[(1S)-3-methyl-1-[(2R)-2-methyloxirane-2-carbonyl]butyl]-3-phenyl-propanamide] | 30 | 28 | 100 | −6.85 | −4.06 | −6.03
CC(C)C[C@H](NC(=O)[C@H](COC(F)F)NC(=O)[C@H](COC(F)F)NC(=O)[C@H](CCc1ccccc1)NC(=O)CN1CCOCC1)C(=O)[C@@]1(C)CO1 [Example 7, (2S)-N-[(1S)-1-(difluoromethoxymethyl)-2-[[(1S)-1-(difluoromethoxymethyl)-2-[[(1S)-3-methyl-1-[(2R)-2-methyloxirane-2-carbo-nyl]butyl]amino]-2-oxo-ethyl]amino]-2-oxo-ethyl]-2-[(2-morpholinoacetyl)amino]-4-phenyl-butanamide] | 35 | 30 | 100 | −7.04 | −4.81 | −6.35
CC(C)C[C@H](NC(=O)[C@H](COC(F)F)NC(=O)CN1CCOCC1)C(=O)N[C@@H](Cc1ccccc1)C(=O)N[C@@H](CC(C)C)C(=O)[C@@]1(C)CO1 [Example 2, (2S)-N-[(1S)-1-benzyl-2-[[(1S)-3-methyl-1-[(2R)-2-methyloxirane-2-carbonyl]butyl]-amino]-2-oxo-ethyl]-2-[[(2S)-3-(difluoromethoxy)-2-[(2-morpholinoacetyl)amino]propanoyl]amino]-4-methyl-pentanamide] | 29 | 24 | 100 | −7.01 | −5.35 | −6.43
CC(C)C[C@H](NC(=O)[C@H](COC(F)F)NC(=O)CN1CCOCC1)C(=O)N[C@@H](Cc1ccccc1)C(=O)N[C@@H](Cc1ccccc1)C(=O)[C@@]1(C)CO1 [Example 3, (2S)-N-[(1S)-1-benzyl-2-[[(1S)-1-benzyl-2-[(2R)-2-methyloxiran-2-yl]-2-oxo-ethyl]amino]-2-oxo-ethyl]-2-[[(2S)-3-(difluoromethoxy)-2-[(2-morpholinoacetyl)-amino]propanoyl]amino]-4-methyl-pentan-amide] | 29 | 31 | 100 | −7.12 | −5.14 | −6.44
CC(C)C[C@H](NC(=O)[C@H](COC(F)F)NC(=O)CN1CCOCC1)C(=O)N[C@@H](COC(F)F)C(=O)N[C@@H](Cc1ccccc1)C(=O)[C@@]1(C)CO1 [Example 4, (2S)-N-[(1S)-2-[[(1S)-1-benzyl-2-[(2R)-2-methyloxiran-2-yl]-2-oxo-ethyl]amino]-1-(difluoromethoxymethyl)-2-oxo-ethyl]-2-[[(2S)-3-(difluoromethoxy)-2-[(2-mor-pholinoacetyl)amino]propanoyl]amino]-4 methyl-pentanamide] | 34 | 37 | 100 | −6.73 | −4.18 | −5.81
CC(C)C[C@H](NC(=O)[C@H](COC(F)F)NC(=O)[C@H](COC(F)F)NC(=O)[C@H](COC(F)F)NC(=O)CN1CCOCC1)C(=O)[C@@]1(C)CO1 [Example 17, (2S)-3-(difluoromethoxy)-N-[(1S)-1-(difluoromethoxymethyl)-2-[[(1S)-1-(difluoro-methoxymethyl)-2-[[(1S)-3-methyl-1-[(2R)-2-methyloxirane-2-carbonyl]butyl]amino]-2-oxo-ethyl]amino]-2-oxo-ethyl]-2-[(2-mor-pholinoacetyl)amino]-propanamide] | 25 | 23 | 100 | −6.58 | −4.92 | −5.73
CC(C)C[C@H](NC(=O)[C@H](COC(F)F)NC(=O)CN1CCOCC1)C(=O)N[C@@H](COC(F)F)C(=O)N[C@@H](CC(C)C)C(=O)[C@@]1(C)CO1 [Example 1, (2S)—N-[(1S)-1-(difluoromethoxymethyl)-2-[[(1S)-3-methyl-1-[(2R)-2-methyloxirane-2-carbonyl]butyl]amino]-2-oxo-ethyl]-2-[[(2S)-3-(difluoromethoxy)-2-[(2-morpholinoacetyl)amino]propanoyl]amino]-4-methyl-pentanamide] | 20 | 21 | 100 | −7.19 | −4.86 | −6.45
